Data from patent US8722729B2, “Unsaturated fatty acid monoesters and diesters on ascorbic acid and cosmetic uses thereof” (Pierre Fabre Dermo-Cosmetique, priority 2009, dated 2014).
“Also recorded” adds a separate entry of the source.

Assays:
[1] = tested on: B16-F10 cells; assay: Assay of melanin in B16-F10 cells (colorimetric, α-MSH stimulated); type: cell-based, murine; conditions: for inhibition at 10 µM / inhibition at 20 µM / IC50 / inhibition at 50 µM / inhibition at 100 µM: Mus musculus; for inhibition at 10 µM / inhibition at 20 µM / inhibition at 50 µM / inhibition at 100 µM: B16-F10, 72 hours, read-out: Percentage inhibition of intracellular melanin; for IC50: B16-F10, α-MSH stimulated, read-out: IC50 intracellular melanin
Experimental: Similarly, to evidence the depigmenting activity of the compounds of general formula (I) according to the invention, the effect of these compounds was measured on the synthesis of melanin by colorimetric assay on a cell line of murine melanomas: line B16-F10.
This is a test to measure the synthesis of melanin by colorimetric assay on a cell line of murine melanomas: line B16-F10. This test allows the evaluation of the depigmenting property of active ingredients.
The B16-F10 cells were seeded onto 96-well plates in DMEM medium supplemented with FCS (fetal calf serum) and incubated 24 hours at 37° C., 5% CO2. The cells were then stimulated with α-MSH (to stimulate the synthesis of melanin, the stimulation observed was about 150%) and treated 72 hours with the active ingredients to be tested. Each concentration of active ingredient was tested at least in triplicate. Total melanin followed by intracellular melanin dissolved in lysis buffer were then assayed by absorbency reading at 405 nm. The total proteins were determined in the lysate and the results are expressed in mg melanin/mg proteins. The percentage activity was calculated as follows: […]
A negative value indicates an inhibition, whereas a positive value indicates induced synthesis of melanin.

[2] = tested on: Human dermal papilla cells; assay: In vitro stimulation of the proliferation of dermal papilla cells (BrdU incorporation); type: cell-based
Experimental: Human dermal papilla cells (Promocell) were placed in culture and held in early passage culture in DMEM medium supplemented with 10% FCS. They were then seeded in a 96-well plate in DMEM medium supplemented with 10% FCS for 12 h. The culture medium was replaced by serum-free DMEM medium then by DMEM supplemented with 1% FCS and molecules 1, 2, 3 and 4 at the different tested concentrations After incubation for 60 h, cell proliferation was evaluated by incorporation of BrdU.
The diagrams in appended FIG. 1 show the increase in BrdU incorporation and the stimulated cellular proliferation of the cells in the presence of the different molecules (as a percent of the control).

[3] = tested on: human hair follicle; assay: Stimulation of the growth of the human hair follicle (Philpott culture); type: cell-based; conditions: 15 μM; for D4 % activity (hair growth stimulation compared with the control) / D4 % growth: 4 days' culture; for D8 % activity (hair growth stimulation compared with the control) / D8 % growth: 8 days' culture
Experimental: (§1) Biopsies of the occipital region of a human scalp were obtained from operative waste. The hair follicles were isolated by micro-dissection under binocular magnification. They were individually placed in culture following Philpott's technique (Philpott M P et al, J Cell Sci. 97:463-471, 1990). The hair follicles in anagen phase were incubated in 24-well culture dishes in the presence of William's medium supplemented with 10 μg/mL Insulin, 10 μg/mL Transferrin, 10 ng/mL Hydrocortisone, 1 mM Glutamax I, 100 U/mL Penicillin, 100 μg/mL Streptomycin, 250 ng/mL Amphotericin B and in the presence of molecules 3 or 4 for 11 days. The incubation medium was regularly renewed. The lengthening (in μm) of each hair follicle was measured at 4 and 8 days' culture in captured images of the hair follicles.
The diagrams in appended FIG. 2 show the effect of molecules 3 and 4 on the lengthening of hair follicles after incubation for 4 days and for 8 days.
The following table (Table 5) gives the growth percentages obtained for each treatment condition and the percentages for stimulated hair growth obtained with molecules 3 and 4 compared with the control.

[4] = target: T1, hyaluronidase of bovine origin (BTH, Bovine Testis hyaluronidase) (Bos taurus, UniProt Q2YDK3); assay: Assay of hyaluronidase activity (residual HA, HA-ELISA); type: biochemical
T1 sequence (Q2YDK3 1-553): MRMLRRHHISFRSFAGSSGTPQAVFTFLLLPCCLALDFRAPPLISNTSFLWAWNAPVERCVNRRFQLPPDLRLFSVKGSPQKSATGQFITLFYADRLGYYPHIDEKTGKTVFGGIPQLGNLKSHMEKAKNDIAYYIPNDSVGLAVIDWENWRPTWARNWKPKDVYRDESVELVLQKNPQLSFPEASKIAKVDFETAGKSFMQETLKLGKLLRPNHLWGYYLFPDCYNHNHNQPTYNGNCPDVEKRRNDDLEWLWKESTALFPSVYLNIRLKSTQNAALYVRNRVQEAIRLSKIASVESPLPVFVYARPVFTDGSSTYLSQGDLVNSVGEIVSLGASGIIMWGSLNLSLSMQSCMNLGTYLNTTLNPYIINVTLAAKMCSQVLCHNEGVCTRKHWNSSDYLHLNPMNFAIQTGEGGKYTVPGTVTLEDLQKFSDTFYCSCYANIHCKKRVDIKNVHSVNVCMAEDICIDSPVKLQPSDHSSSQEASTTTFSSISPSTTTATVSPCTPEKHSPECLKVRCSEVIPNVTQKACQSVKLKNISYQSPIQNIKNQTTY
Experimental: Hyaluronidase activity is measured by the assay of residual hyaluronic acid (HA). The substrate is fixed to a carrier then placed in the presence of an enzyme and a quantity of compound to be tested. The residual HA i.e. the non-hydrolyzed HA is assayed using a HA-Elisa detection system: Hyaluronan enzyme-linked immunosorbent assay (Echelon Biosciences®).
0.5 units of hyaluronidase of bovine origin (BTH, Bovine Testis hyaluronidase) were pre-incubated at 37° C. with the compound to be tested. This mixture was deposited on the HA fixed to the surface of a microplate well. The enzymatic reaction took place at pH 7.2n at 37° C. Washing was followed by a recognition step of residual HA by hyaluronectin (NH). The quantity of bonded NH was measured by ELISA using an anti-NH antibody conjugated with alkaline phosphatase. The p-nitrophenyl phosphate disodium salt (pnNpp) substrate of the phosphatase allows spectrometric detection at 405 nm. (Delpech B et al., Analytical Biochemistry 149, 555(565 (1985); Robert Stern et al. Analytical Biochemistry 251, 263-269 (1997)). OD intensity was correlated with the quantity of residual HA. The quantity of residual HA is directly linked to enzymatic activity. In the presence of an inhibitor, the larger the quantity of residual HA the more the sample is inhibiting. A percentage inhibition of hyaluronidase will be expressed.
Therefore the net enzymatic activities were calculated which represent the difference in mean gross activity without enzyme and the gross activity of the enzyme with or without the compound to be tested.
The percentage enzymatic inhibition related to the compound to be tested was calculated as follows: % inhibition=(Maximum net enzymatic activity)−Net enzymatic activity in the presence of the compound to be tested)/Maximum net enzymatic activity.
where the maximum net enzymatic activity represents the mean net enzymatic activity of 0.5 U.

[5] = tested on: human hair follicle; assay: Evaluation of hair bulb degeneration (apoptotic follicles at D11); type: cell-based
Experimental: as §1
The degeneration of the follicle when kinetics cease after 11 culture days, is evaluated by observation of morphological damage of the hair bulb (rounding, deformation). The percentage apoptosis is calculated by counting the number of apoptotic hair follicles relative to the total number of follicles

[6] = 0.5 U BTH, read-out: Enzymatic inhibition (mean as a percentage)

Row | Compound | IC50 [1] [µM] | inhibition at 10 µM [4, 6] [%] | inhibition at 50 µM [4, 6] [%] | Inhibition of the synthesis of intracellular melanin compared with vitamin C [1] | inhibition at 10 µM [1] [%] | inhibition at 20 µM [1] [%] | Proliferation of dermal papilla cells [2] | D4 % activity (hair growth stimulation compared with the control) [3] [%] | D4 % growth [3] [%] | D8 % activity (hair growth stimulation compared with the control) [3] [%] | D8 % growth [3] [%] | inhibition at 50 µM [1] [%] | inhibition at 100 µM [1] [%] | Effect on hyaluronidase [4] | other results
1 | CCCCC/C=C\C/C=C\C/C=C\CCCCC(=O)OC1=C(OC(=O)CCCC/C=C\C/C=C\C/C=C\CCCCC)C(C2COC(C)(C)O2)OC1=O (centres unmarked) [Molecule 3, dioctadeca-6,9,12-trienoate of (6Z,6′Z,9Z,9′Z,12Z,12′Z)-2-(2,2-dimethyl-1,3-dioxolan-4-yl)-5-oxo-2,5-dihydrofuran-3,4-diyl] | 20 | – | – | greater than that of vitamin C | 25 | 50 | induce proliferation of the cells but to a lesser extent than molecules 1 and 4 | 25 | 52 | 18 | 85 | – | – | – | –
2 | CC/C=C\C/C=C\C/C=C\CCCCCCCC(=O)OC1=C(OC(=O)CCCCCCC/C=C\C/C=C\C/C=C\CC)C(C2COC(C)(C)O2)OC1=O (centres unmarked) [Molecule 2, dioctadeca-9,12,15-trienoate of (9Z,9′Z,12Z,12′Z,15Z,15′Z)-2-(2,2-dimethyl-1,3-dioxolan-4-yl)-5-oxo-2,5-dihydrofuran-3,4-diyl] | 20 | – | – | greater than that of vitamin C | 11 | 53 | induce proliferation of the cells but to a lesser extent than molecules 1 and 4 | – | – | – | – | – | – | – | –
3 | CCCCCCCCCCCCCCCC(=O)OC[C@H](O)[C@H]1OC(=O)C(O)=C1O [6-ascorbyl palmitate, reference compound] | – | 31 | 71 | – | – | – | – | – | – | – | – | – | – | advantageously inhibits hyaluronidase, from 10 to 250 μM, with dose effect | inhibition at 25 µM ([4]; 25 μM, 0.5 U BTH, read-out: Enzymatic inhibition (mean as a percentage)): 57%; inhibition at 100 µM ([4]; 100 μM, 0.5 U BTH, read-out: Enzymatic inhibition (mean as a percentage)): 73%; inhibition at 200 µM ([4]; 200 μM, 0.5 U BTH, read-out: Enzymatic inhibition (mean as a percentage)): 79%; inhibition at 250 µM ([4]; 250 μM, 0.5 U BTH, read-out: Enzymatic inhibition (mean as a percentage)): 112%
4 | CCCCCCCC/C=C\CCCCCCCC(=O)OC1=C(OC(=O)CCCCCCC/C=C\CCCCCCCC)C(C2COC(C)(C)O2)OC1=O (centres unmarked) [Molecule 4, dioleate of (Z)-2-(2,2-dimethyl-1,3-dioxolan-4-yl)-5-oxo-2,5-dihydrofuran-3,4-diyl] | 53 | 72 | 111 | greater than that of vitamin C | -16 | 6 | – | 19 | 51 | 12 | 84 | 44 | – | strongly inhibit hyaluronidase; also recorded: equivalent to or more active than ascorbyl palmitate | Proliferation stimulation of dermal papilla cells ([2]; 6.25 μM, 60 h): 113.9%; Number of apoptotic bulbs at D11 (Number of total follicles) ([5]; 15 μM, 11 days of incubation): 6 (12); % apoptosis ([5]; 15 μM, 11 days of incubation, control 75): 50%; Effect on hair degeneration ([5]; 11 days): marked limiting of hair degeneration

Further lines, with some results ahead:

Row | IC50 [1] [µM] | inhibition at 10 µM [4, 6] [%] | inhibition at 50 µM [4, 6] [%] | Compound | Inhibition of the synthesis of intracellular melanin compared with vitamin C [1] | inhibition at 10 µM [1] [%] | inhibition at 20 µM [1] [%] | Proliferation of dermal papilla cells [2] | D4 % activity (hair growth stimulation compared with the control) [3] [%] | D4 % growth [3] [%] | D8 % activity (hair growth stimulation compared with the control) [3] [%] | D8 % growth [3] [%] | inhibition at 50 µM [1] [%] | inhibition at 100 µM [1] [%] | Effect on hyaluronidase [4] | other results
5 | 105 | 34 | 106 | CCCCCCCC/C=C\CCCCCCCC(=O)OC1=C(O)C(C2COC(C)(C)O2)OC1=O (centres unmarked) [Molecule 6, 5-(2,2-dimethyl-1,3-dioxolan-4-yl)-4-hydroxy-2-oxo-2,5-dihydrofuran-3-yl oleate] | greater than that of vitamin C | – | – | – | – | – | – | – | 7 | 49 | strongly inhibit hyaluronidase; also recorded: equivalent to or more active than ascorbyl palmitate | –
6 | 66 | 31 | 76 | CCCCC/C=C\C/C=C\CCCCCCCC(=O)OC1=C(O)C(C2COC(C)(C)O2)OC1=O (centres unmarked) [Molecule 5, (9Z,12Z)-5-(2,2-dimethyl-1,3-dioxolan-4-yl)-4-hydroxy-2-oxo-2,5-dihydrofuran-3-yl octadeca-9,12-dienoate] | greater than that of vitamin C | 4 | 13 | – | – | – | – | – | 35 | 78 | strongly inhibit hyaluronidase; also recorded: equivalent to or more active than ascorbyl palmitate | –
